Measurements from publication PMC7791840, “The R-enantiomer of ketorolac reduces ovarian cancer tumor burden in vivo” (BMC Cancer, 2021).
“Also recorded” adds a separate entry of the source. Structures can show the parent of a compound that is named as a salt.

Legend:
SKOV3ip-GFP cells [1] = test: Two-week intraperitoneal tumor growth model (tumor burden); format: in vivo, mice; settings: 1 mg/kg twice daily oral, 14 days, vs placebo
Excerpt: For two-week tumor studies, 1 × 10^6 non-treated SKOV3ip-GFP cells were i.p. injected. All mice started R-ketorolac treatment one day prior to cell injection and continued treatment until conclusion of the study 14 days later. Mice were imaged using a Light Tools imaging system (Synopsys Optical Solutions, Westminster CO) with long pass GFP filters. Three images per mouse were captured to ensure all tumors were counted. Green fluorescent tumors were identified and counted in the peritoneal cavity as single tumors if there was a distinct border of non-fluorescent tissue. Tumor burden of the omentum occurred either as one large tumor or a bundle of tumors and was not included in the final analysis of tumor number. Total tumor counts from the peritoneal cavity were normalized to placebo treated animals within individual experiments. Blood was collected via cardiac puncture and ketorolac enantiomer concentrations were measured by HPLC analysis as described in Supplemental Methods (Additional File 1: Supplemental Methods). […]

Rac1 [2] = target: T1, Rac1 (Homo sapiens, UniProt P63000); test: Flow cytometric GTPase effector binding assay in tumor lysates (Rac1); format: in vivo; settings: oral 1 mg/kg twice daily, 2 weeks; vs placebo
T1 construct: Frozen tumor samples were lysed without thawing; from tissue; host or cells: peritoneal SKOV3ip-GFP xenograft tumours from treated mice
Experimental: (§1) GTPase effector binding assays were carried out according to the protocols described previously. Frozen tumor samples were lysed without thawing with the addition of RIPA lysis buffer with the following modifications (no β-glycerphosphate,1 mM NaF and protease, 1% (v/v) NP-40 (nonyl phenoxypolyethoxylethanol) inhibitors consisting 10 μg/ml each of chymostatin, leupeptin, pepstatin and antipain). Protein concentrations were determined using GLISA quick protein concentration kit and lysates were adjusted to uniform protein concentrations of 0.5 mg/ml. Insoluble debris was removed by centrifugation at 14,000 RPM in a cold microfuge and the supernatants were incubated with GTPase effector coated beads (PAK1-PBD for Cdc42 and Rac1) for 1 h at 4 °C with rotation. Primary antibodies directed against Cdc42 or Rac1 and secondary antibody Alexa 488 were incubated with the beads for 1 h. Fluorescence intensity MCF (mean channel fluorescence) was used to measure the amount of active intracellular GTPase. MCF was measured by flow cytometry (Accuri C6, BD Biosciences). GTPase activity was calculated as (MCFsample group – MCFunstimulated negative control) / MCFstimulated positive control.

Cdc42 [3] = target: T2, Cdc42 (Homo sapiens, UniProt P60953); test: Flow cytometric GTPase effector binding assay in tumor lysates (Cdc42); format: in vivo; settings: oral 1 mg/kg twice daily, 2 weeks; vs placebo
T2 construct: Frozen tumor samples were lysed without thawing; from tissue; host or cells: peritoneal SKOV3ip-GFP xenograft tumours from treated mice
T2 sequence (P60953 whole entry): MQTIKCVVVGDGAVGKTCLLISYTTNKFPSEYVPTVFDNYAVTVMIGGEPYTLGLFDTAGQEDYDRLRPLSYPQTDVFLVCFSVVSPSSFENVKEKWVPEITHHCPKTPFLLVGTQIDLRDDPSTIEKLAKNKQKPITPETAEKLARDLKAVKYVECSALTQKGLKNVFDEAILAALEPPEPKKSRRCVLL
Experimental: as §1

SKOV3ip-GFP cells [4] = test: Measurement of omental weight; format: in vivo, mice; settings: two-week tumor study, 1 mg/kg twice daily; no significant differences between groups
Excerpt: page 1: SUPPLEMENTAL METHODS Cell Culture and Reagents SKOV3ip cells were modified to express GFP-Rac1 by transfection with pcDNA3-EGFP-Rac1- wt (Catalog # 12980, Addgene) as described for SKOV3ip-GFP cells under Methods. Rac1 overexpression quantification and verification was completed by western blot and qPCR. SKOV3ip-GFP and SKOV3ip-GFP-Rac1 cell populations were further enriched by flow sorting for GFP positive cells. SKOV3ip-GFP-Rac1 cell lines were maintained under the same selection as described for SKOV3ip-GFP cells (Methods). In vivo Drug Dosing Racemic (R-/S-) ketorolac tromethamine salt was purchased from Sigma (St. Louis MO, cat# K1136), S-ketorolac was purchased from Toronto Research Chemicals (Toronto Canada, cat# K235602) and dissolved in water or 100% ethanol, respectively . Mice received twice daily […] mg/kg of body weight. Measurement of Omental Weight Omental tissue was harvested and stored on ice in PBS for no more than 1 hour before analysis. Omenta were blotted dry on lab tissue and weight was measured using an analytical balance (Denver Instruments Company, A -160). There was a non-significant decreasing trend in omental weight for treated mice when compared to placebo mice ( Additional File 3: Table S1). […] Ketorolac was detected using a UV spectrometer set at UV310. […]

Rac1 [5] = system: Rac1; parameters: method as in earlier work; settings: cell-based assays, ovarian tumor cells; ref 23 (R-ketorolac), 27 (S-ketorolac); cited from earlier work
Cdc42 [6] = system: Cdc42; parameters: method as in earlier work; settings: cell-based assays, ovarian tumor cells; ref 23 (R-ketorolac), 27 (S-ketorolac); cited from earlier work
COX-1 = system: COX-1; parameters: method as in PMID 26558612, PMID 10027870; settings: cited from earlier work
[7] = mouse, in vivo
Experimental: Foxn1^nu NU /J athymic nude female mice, aged 6–9 weeks, were purchased from The Jackson Laboratory (Bar Harbor, ME, stock number 002019). […] Mice were maintained at a controlled temperature of 22–23 °C, with a 12-h light/12-h dark cycle. Water and standard mouse chow were available ad libitum. […] Their health status was monitored throughout the experiment. […] Mice were euthanized using a CO2 chamber in accordance with the recommendation of the Panel on Euthanasia of the American Veterinary Medical Association. Cervical dislocation was then carried out to confirm death before tumor analysis and tissue collection.

COX-2 = system: COX-2; parameters: method as in PMID 26558612, PMID 10027870; settings: cited from earlier work
[8] = parameters: method as in PMID 8809637; settings: single dose oral administration of R-ketorolac; cited from earlier work
ovarian tumor cell = system: ovarian tumor cell; parameters: method as in PMID 26071482, PMID 26558612, PMID 26206334; settings: cited from earlier work

Compound	Tumor burden (tumor implants within the peritoneal cavity) (SKOV3ip-GFP cells [1])	Rac1 GTPase activity in tumor lysates (Rac1 [2])	Cdc42 GTPase activity in tumor lysates (Cdc42 [3])	Omental weight, Mean ± SD (SKOV3ip-GFP cells [4])	IC50 (Rac1 [5])	IC50 (Cdc42 [6])	IC50 (COX-1)	Body weight [7]	IC50 (COX-2)	Maximal peak serum concentration [8]	Ovarian tumor cell adhesion, migration and invadopodia formation (ovarian tumor cell)	Cytotoxicity (ovarian tumor cell; ovarian tumor cells)	Tumor burden (tumor implants within the peritoneal cavity) (SKOV3ip-GFP cells [1]; listed as Racemic drug)
O=C(c1ccccc1)c1ccc2n1CC[C@H]2C(=O)O [R-ketorolac]	significantly fewer tumor implants; also recorded: significantly decreased tumor burden	significantly decreased	significantly decreased	0.059 ± 0.018 g	570 nM	1070 nM	> 100000 nM	No significant difference in body weight	> 100000 nM	2.48 µg/mL	inhibited ovarian tumor cell adhesion, migration and invadopodia formation	without cytotoxicity	–
O=C(c1ccccc1)c1ccc2n1CCC2C(=O)O (stereo not shown) [R−/S-ketorolac, ketorolac tromethamine salt]	–	Inhibition of the target GTPases was evident	Inhibition of the target GTPases was evident	0.058 ± 0.026 g	–	–	–	–	–	–	–	–	significantly decreased tumor burden
